Earlier results in patent US10674699B2, “Endophyte enhanced seedlings with increased pest tolerance” (priority 2006, dated 2020).

System: spruce budworm cells
Conditions: Can J Chem 81: 284; cited from earlier work

Substance: trihydroxy-4-1′-hydroxyethyl) isocoumarin
- toxicity to spruce budworm cells: ^camong others; a new compound trihydroxy-4-1′-hydroxyethyl) isocoumarin also toxic to spruce budworm cells (Can J Chem 81: 284)
